Test results reported in ChEMBL document CHEMBL1697731, “Cheminformatics analysis of assertions mined from literature that describe drug-induced liver injury in different species” (Chem Res Toxicol, 2010).

Legend:
Hepatotoxicity [1] = assay: Literature-mined compound from Fourches et al multi-species drug-induced liver injury (DILI) dataset, effect in humans; details: human
Hepatotoxicity [2] = assay: Literature-mined compound from Fourches et al multi-species drug-induced liver injury (DILI) dataset, effect in rodents; details: rodentia
Hepatotoxicity [3] = assay: Literature-mined compound from Fourches et al multi-species drug-induced liver injury (DILI) dataset, effect in non-rodents

For `C[C@]12CC[C@@H]3c4ccc(O)cc4CC[C@H]3[C@@H]1CCC2=O` [ESTRONE], the Hepatotoxicity (Hepatotoxicity [1]) was “drug-induced liver injury reported”, the Hepatotoxicity (Hepatotoxicity [2]) was “drug-induced liver injury reported” and the Hepatotoxicity (Hepatotoxicity [3]) was “no drug-induced liver injury reported”.
For `C=C(CC)C(=O)c1ccc(OCC(=O)O)c(Cl)c1Cl` [ETHACRYNIC ACID], the Hepatotoxicity (Hepatotoxicity [1]) was “no drug-induced liver injury reported”, the Hepatotoxicity (Hepatotoxicity [2]) was “drug-induced liver injury reported” and the Hepatotoxicity (Hepatotoxicity [3]) was “drug-induced liver injury reported”.
For `C#C[C@]1(O)CC[C@H]2[C@@H]3CCc4cc(O)ccc4[C@H]3CC[C@@]21C` [ETHINYL ESTRADIOL], the Hepatotoxicity (Hepatotoxicity [1]) was “drug-induced liver injury reported”, the Hepatotoxicity (Hepatotoxicity [2]) was “drug-induced liver injury reported” and the Hepatotoxicity (Hepatotoxicity [3]) was “drug-induced liver injury reported”.
`CCc1cc(C(N)=S)ccn1` [ETHIONAMIDE] was tested, and the Hepatotoxicity (Hepatotoxicity [1]; Liver) was “drug-induced liver injury reported”, the Hepatotoxicity (Hepatotoxicity [2]; Liver) was “drug-induced liver injury reported” and the Hepatotoxicity (Hepatotoxicity [3]; Liver) was “no drug-induced liver injury reported”.
For `CCOc1ccc2nc(S(N)(=O)=O)sc2c1` [ETHOXZOLAMIDE], the Hepatotoxicity (Hepatotoxicity [1]) was “no drug-induced liver injury reported”, the Hepatotoxicity (Hepatotoxicity [2]) was “drug-induced liver injury reported” and the Hepatotoxicity (Hepatotoxicity [3]) was “no drug-induced liver injury reported”.
In the case of `CCc1cccc2c3c([nH]c12)C(CC)(CC(=O)O)OCC3` (stereo unspecified) [ETODOLAC], the Hepatotoxicity (Hepatotoxicity [1]) is reported as “drug-induced liver injury reported”, the Hepatotoxicity (Hepatotoxicity [2]) is reported as “drug-induced liver injury reported” and the Hepatotoxicity (Hepatotoxicity [3]) is reported as “no drug-induced liver injury reported”.
For `CCOC(=O)c1cncn1[C@H](C)c1ccccc1` [ETOMIDATE], the Hepatotoxicity (Hepatotoxicity [1]) was “drug-induced liver injury reported”, the Hepatotoxicity (Hepatotoxicity [2]) was “drug-induced liver injury reported” and the Hepatotoxicity (Hepatotoxicity [3]) was “no drug-induced liver injury reported”.
For `CCOC(=O)[C@@]1(CCCCCCOc2ccc(Cl)cc2)CO1` [ETOMOXIR], the Hepatotoxicity (Hepatotoxicity [1]) was “drug-induced liver injury reported”, the Hepatotoxicity (Hepatotoxicity [2]) was “drug-induced liver injury reported” and the Hepatotoxicity (Hepatotoxicity [3]) was “drug-induced liver injury reported”.
In the case of `COc1cc([C@@H]2c3cc4c(cc3[C@@H](O[C@@H]3O[C@@H]5CO[C@@H](C)O[C@H]5[C@H](O)[C@H]3O)[C@H]3COC(=O)[C@H]23)OCO4)cc(OC)c1O` [ETOPOSIDE], the Hepatotoxicity (Hepatotoxicity [1]; Liver) is reported as “drug-induced liver injury reported”, the Hepatotoxicity (Hepatotoxicity [2]; Liver) is reported as “drug-induced liver injury reported” and the Hepatotoxicity (Hepatotoxicity [3]; Liver) is reported as “no drug-induced liver injury reported”.
`CCOC(=O)/C=C(C)/C=C/C=C(C)/C=C/c1c(C)cc(OC)c(C)c1C` [ETRETINATE] was tested, and the Hepatotoxicity (Hepatotoxicity [1]) was “drug-induced liver injury reported”, the Hepatotoxicity (Hepatotoxicity [2]) was “no drug-induced liver injury reported” and the Hepatotoxicity (Hepatotoxicity [3]) was “no drug-induced liver injury reported”.
In the case of `Cc1cc(-c2ccc(/N=N/c3ccc4c(S(=O)(=O)[O-])cc(S(=O)(=O)[O-])c(N)c4c3O)c(C)c2)ccc1/N=N/c1ccc2c(S(=O)(=O)[O-])cc(S(=O)(=O)[O-])c(N)c2c1O.[Na+].[Na+].[Na+].[Na+]` [EVANS BLUE], the Hepatotoxicity (Hepatotoxicity [1]) is reported as “no drug-induced liver injury reported”, the Hepatotoxicity (Hepatotoxicity [2]) is reported as “drug-induced liver injury reported” and the Hepatotoxicity (Hepatotoxicity [3]) is reported as “no drug-induced liver injury reported”.
With `CC1=C(CC(=O)O)c2cc(F)ccc2/C1=C\c1ccc(S(C)(=O)=O)cc1` [EXISULIND] the Hepatotoxicity (Hepatotoxicity [1]) was “drug-induced liver injury reported”, the Hepatotoxicity (Hepatotoxicity [2]) was “no drug-induced liver injury reported” and the Hepatotoxicity (Hepatotoxicity [3]) was “no drug-induced liver injury reported”.
With `O=C1[C@H](CC[C@H](O)c2ccc(F)cc2)[C@@H](c2ccc(O)cc2)N1c1ccc(F)cc1` [EZETIMIBE] the Hepatotoxicity (Hepatotoxicity [1]) was “drug-induced liver injury reported”, the Hepatotoxicity (Hepatotoxicity [2]) was “drug-induced liver injury reported” and the Hepatotoxicity (Hepatotoxicity [3]) was “drug-induced liver injury reported”.
`CC(=O)OCC(CCn1cnc2cnc(N)nc21)COC(C)=O` [FAMCICLOVIR] was tested, and the Hepatotoxicity (Hepatotoxicity [1]) was “drug-induced liver injury reported”, the Hepatotoxicity (Hepatotoxicity [2]) was “no drug-induced liver injury reported” and the Hepatotoxicity (Hepatotoxicity [3]) was “no drug-induced liver injury reported”.
For `NC(N)=Nc1nc(CSCCC(N)=NS(N)(=O)=O)cs1` [FAMOTIDINE], the Hepatotoxicity (Hepatotoxicity [1]; Liver) was “drug-induced liver injury reported”, the Hepatotoxicity (Hepatotoxicity [2]; Liver) was “drug-induced liver injury reported” and the Hepatotoxicity (Hepatotoxicity [3]; Liver) was “no drug-induced liver injury reported”.
With `COc1ccc2cc1Oc1ccc(cc1)C[C@H]1c3cc(c(OC)cc3CCN1C)Oc1c(OC)c(OC)cc3c1[C@H](C2)N(C)CC3` [FANCHININ] the Hepatotoxicity (Hepatotoxicity [1]) was “drug-induced liver injury reported”, the Hepatotoxicity (Hepatotoxicity [2]) was “drug-induced liver injury reported” and the Hepatotoxicity (Hepatotoxicity [3]) was “no drug-induced liver injury reported”.
With `O=S(=O)(c1cccc2cnccc12)N1CCCNCC1` [FASUDIL] the Hepatotoxicity (Hepatotoxicity [1]) was “drug-induced liver injury reported”, the Hepatotoxicity (Hepatotoxicity [2]) was “drug-induced liver injury reported” and the Hepatotoxicity (Hepatotoxicity [3]) was “no drug-induced liver injury reported”.
With `NC(=O)OCC(COC(N)=O)c1ccccc1` [FELBAMATE] the Hepatotoxicity (Hepatotoxicity [1]) was “drug-induced liver injury reported”, the Hepatotoxicity (Hepatotoxicity [2]) was “drug-induced liver injury reported” and the Hepatotoxicity (Hepatotoxicity [3]) was “no drug-induced liver injury reported”.
For `CCOC(=O)C1=C(C)NC(C)=C(C(=O)OC)C1c1cccc(Cl)c1Cl` (stereo unspecified) [FELODIPINE], the Hepatotoxicity (Hepatotoxicity [1]) was “drug-induced liver injury reported”, the Hepatotoxicity (Hepatotoxicity [2]) was “no drug-induced liver injury reported” and the Hepatotoxicity (Hepatotoxicity [3]) was “no drug-induced liver injury reported”.
With `NCCCC[C@H](NC(=O)[C@@H]1CCCN1C(=O)[C@@H]1CSSC[C@H](N)C(=O)N[C@@H](Cc2ccccc2)C(=O)N[C@@H](Cc2ccccc2)C(=O)N[C@@H](CCC(N)=O)C(=O)N[C@@H](CC(N)=O)C(=O)N1)C(=O)NCC(N)=O` [FELYPRESSIN] the Hepatotoxicity (Hepatotoxicity [1]) was “no drug-induced liver injury reported”, the Hepatotoxicity (Hepatotoxicity [2]) was “no drug-induced liver injury reported” and the Hepatotoxicity (Hepatotoxicity [3]) was “drug-induced liver injury reported”.
For `CC(C)OC(=O)C(C)(C)Oc1ccc(C(=O)c2ccc(Cl)cc2)cc1` [FENOFIBRATE], the Hepatotoxicity (Hepatotoxicity [1]) was “drug-induced liver injury reported”, the Hepatotoxicity (Hepatotoxicity [2]) was “drug-induced liver injury reported” and the Hepatotoxicity (Hepatotoxicity [3]) was “no drug-induced liver injury reported”.
For `CC1=C(/C=C/C(C)=C/C=C/C(C)=C/C(=O)Nc2ccc(O)cc2)C(C)(C)CCC1` [FENRETINIDE], the Hepatotoxicity (Hepatotoxicity [1]) was “drug-induced liver injury reported”, the Hepatotoxicity (Hepatotoxicity [2]) was “drug-induced liver injury reported” and the Hepatotoxicity (Hepatotoxicity [3]) was “no drug-induced liver injury reported”.
With `CCCCCCCCc1ccc(CCC(N)(CO)CO)cc1` [FINGOLIMOD] the Hepatotoxicity (Hepatotoxicity [1]) was “drug-induced liver injury reported”, the Hepatotoxicity (Hepatotoxicity [2]) was “drug-induced liver injury reported” and the Hepatotoxicity (Hepatotoxicity [3]) was “no drug-induced liver injury reported”.
For `O=C(NCC1CCCCN1)c1cc(OCC(F)(F)F)ccc1OCC(F)(F)F` (stereo unspecified) [FLECAINIDE], the Hepatotoxicity (Hepatotoxicity [1]) was “drug-induced liver injury reported”, the Hepatotoxicity (Hepatotoxicity [2]) was “no drug-induced liver injury reported” and the Hepatotoxicity (Hepatotoxicity [3]) was “no drug-induced liver injury reported”.
With `Cn1cc([S+](C)[O-])c(=O)c2ccc(F)cc21` (stereo unspecified) [FLOSEQUINAN] the Hepatotoxicity (Hepatotoxicity [1]) was “drug-induced liver injury reported”, the Hepatotoxicity (Hepatotoxicity [2]) was “no drug-induced liver injury reported” and the Hepatotoxicity (Hepatotoxicity [3]) was “no drug-induced liver injury reported”.
With `Cc1onc(-c2c(F)cccc2Cl)c1C(=O)N[C@@H]1C(=O)N2[C@@H]1SC(C)(C)[C@@H]2C(=O)O` [FLOXACILLIN] the Hepatotoxicity (Hepatotoxicity [1]) was “drug-induced liver injury reported”, the Hepatotoxicity (Hepatotoxicity [2]) was “drug-induced liver injury reported” and the Hepatotoxicity (Hepatotoxicity [3]) was “no drug-induced liver injury reported”.
For `O=c1[nH]c(=O)n([C@H]2C[C@H](O)[C@@H](CO)O2)cc1F` [FLOXURIDINE], the Hepatotoxicity (Hepatotoxicity [1]) was “drug-induced liver injury reported”, the Hepatotoxicity (Hepatotoxicity [2]) was “drug-induced liver injury reported” and the Hepatotoxicity (Hepatotoxicity [3]) was “no drug-induced liver injury reported”.
With `OC(Cn1cncn1)(Cn1cncn1)c1ccc(F)cc1F` [FLUCONAZOLE] the Hepatotoxicity (Hepatotoxicity [1]; Liver) was “drug-induced liver injury reported”, the Hepatotoxicity (Hepatotoxicity [2]; Liver) was “drug-induced liver injury reported” and the Hepatotoxicity (Hepatotoxicity [3]; Liver) was “no drug-induced liver injury reported”.
For `Nc1nc(=O)[nH]cc1F` [FLUCYTOSINE], the Hepatotoxicity (Hepatotoxicity [1]) was “no drug-induced liver injury reported”, the Hepatotoxicity (Hepatotoxicity [2]) was “drug-induced liver injury reported” and the Hepatotoxicity (Hepatotoxicity [3]) was “no drug-induced liver injury reported”.
With `O=C(O)c1ccccc1Nc1cccc(C(F)(F)F)c1` [FLUFENAMIC ACID] the Hepatotoxicity (Hepatotoxicity [1]) was “drug-induced liver injury reported”, the Hepatotoxicity (Hepatotoxicity [2]) was “drug-induced liver injury reported” and the Hepatotoxicity (Hepatotoxicity [3]) was “no drug-induced liver injury reported”.
With `CCOC(=O)c1ncn2c1CN(C)C(=O)c1cc(F)ccc1-2` [FLUMAZENIL] the Hepatotoxicity (Hepatotoxicity [1]) was “drug-induced liver injury reported”, the Hepatotoxicity (Hepatotoxicity [2]) was “no drug-induced liver injury reported” and the Hepatotoxicity (Hepatotoxicity [3]) was “no drug-induced liver injury reported”.
`CN1C(=O)CN=C(c2ccccc2F)c2cc([N+](=O)[O-])ccc21` [FLUNITRAZEPAM] was tested, and the Hepatotoxicity (Hepatotoxicity [1]) was “no drug-induced liver injury reported”, the Hepatotoxicity (Hepatotoxicity [2]) was “no drug-induced liver injury reported” and the Hepatotoxicity (Hepatotoxicity [3]) was “drug-induced liver injury reported”.
For `O=c1[nH]cc(F)c(=O)[nH]1` [FLUOROURACIL], the Hepatotoxicity (Hepatotoxicity [1]) was “drug-induced liver injury reported”, the Hepatotoxicity (Hepatotoxicity [2]) was “drug-induced liver injury reported” and the Hepatotoxicity (Hepatotoxicity [3]) was “drug-induced liver injury reported”.
In the case of `CC(C(=O)O)c1ccc(-c2ccccc2)c(F)c1` (stereo unspecified) [FLURBIPROFEN], the Hepatotoxicity (Hepatotoxicity [1]) is reported as “no drug-induced liver injury reported”, the Hepatotoxicity (Hepatotoxicity [2]) is reported as “drug-induced liver injury reported” and the Hepatotoxicity (Hepatotoxicity [3]) is reported as “drug-induced liver injury reported”.
With `CC(C)C(=O)Nc1ccc([N+](=O)[O-])c(C(F)(F)F)c1` [FLUTAMIDE] the Hepatotoxicity (Hepatotoxicity [1]) was “drug-induced liver injury reported”, the Hepatotoxicity (Hepatotoxicity [2]) was “drug-induced liver injury reported” and the Hepatotoxicity (Hepatotoxicity [3]) was “no drug-induced liver injury reported”.
For `CC(C)n1c(/C=C/C(O)CC(O)CC(=O)O)c(-c2ccc(F)cc2)c2ccccc21` (stereo unspecified) [FLUVASTATIN], the Hepatotoxicity (Hepatotoxicity [1]; Liver) was “drug-induced liver injury reported”, the Hepatotoxicity (Hepatotoxicity [2]; Liver) was “drug-induced liver injury reported” and the Hepatotoxicity (Hepatotoxicity [3]; Liver) was “no drug-induced liver injury reported”.
For `COCCCC/C(=N\OCCN)c1ccc(C(F)(F)F)cc1` [FLUVOXAMINE], the Hepatotoxicity (Hepatotoxicity [1]) was “drug-induced liver injury reported”, the Hepatotoxicity (Hepatotoxicity [2]) was “drug-induced liver injury reported” and the Hepatotoxicity (Hepatotoxicity [3]) was “no drug-induced liver injury reported”.
